In paper PMC4941764, “Identification of 4-aminoquinoline core for the design of new cholinesterase inhibitors” (PeerJ, 2016) one finds inhibition data, which are given here for 1 molecule.

The assay concerns the target T1, acetylcholinesterase (eeAChE) (Electrophorus electricus, UniProt O42275).
T1 construct: gene ache
Put plainly: Ellman assay, single concentration ([…]). The class given is biochemical. (In general: Ellman's reagent forms a yellow product with free thiols.)

Each structure is given as a SMILES string.

T1 sequence (O42275 24-633): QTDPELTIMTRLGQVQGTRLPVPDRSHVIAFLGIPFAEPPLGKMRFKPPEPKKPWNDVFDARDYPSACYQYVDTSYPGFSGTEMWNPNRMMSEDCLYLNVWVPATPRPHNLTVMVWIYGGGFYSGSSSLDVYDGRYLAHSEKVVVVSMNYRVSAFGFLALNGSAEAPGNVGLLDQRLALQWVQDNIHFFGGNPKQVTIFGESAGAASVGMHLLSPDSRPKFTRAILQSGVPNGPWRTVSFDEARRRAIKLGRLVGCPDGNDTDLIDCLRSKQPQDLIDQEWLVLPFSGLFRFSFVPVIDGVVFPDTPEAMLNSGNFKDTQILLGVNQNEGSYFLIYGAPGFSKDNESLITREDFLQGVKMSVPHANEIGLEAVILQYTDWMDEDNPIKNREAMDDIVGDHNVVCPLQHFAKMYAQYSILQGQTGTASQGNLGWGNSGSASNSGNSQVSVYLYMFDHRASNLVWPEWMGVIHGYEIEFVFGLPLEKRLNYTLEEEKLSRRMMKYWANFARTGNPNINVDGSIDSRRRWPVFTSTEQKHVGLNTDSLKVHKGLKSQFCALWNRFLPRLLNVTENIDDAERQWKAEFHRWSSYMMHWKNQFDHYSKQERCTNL

In general, inhibition refers to the change of the read-out against control, counted positive when it falls. Take `Nc1ccnc2ccccc12` [compound 03, 4-aminoquinoline]: the inhibition at 10 µM was 68.3 ± 1.83%.
